pEC50: −log10 of the molar value.

T1 sequence (P21453 whole entry): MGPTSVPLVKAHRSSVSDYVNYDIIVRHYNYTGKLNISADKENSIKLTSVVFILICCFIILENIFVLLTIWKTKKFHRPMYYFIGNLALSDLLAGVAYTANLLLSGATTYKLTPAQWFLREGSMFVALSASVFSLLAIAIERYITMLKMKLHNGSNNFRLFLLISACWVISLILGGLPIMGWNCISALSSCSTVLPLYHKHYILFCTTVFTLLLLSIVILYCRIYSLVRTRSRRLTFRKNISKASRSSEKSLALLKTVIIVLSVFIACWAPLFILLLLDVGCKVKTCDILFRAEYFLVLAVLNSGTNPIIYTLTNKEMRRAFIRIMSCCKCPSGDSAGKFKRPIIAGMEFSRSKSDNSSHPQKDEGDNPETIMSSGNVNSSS

This assay has as its target T1, hS1P1 (Homo sapiens, UniProt P21453).
T1 construct: expressed in transfected cells
As to the kind of experiment: hS1P1 EC50 (S1P receptor Ca2+ flux protocol, CHO K1 Gqi5 cells). It is filed as cell-based. As to the method:
S1P receptor activity may also be measured by an S1P receptor (e.g., hS1P1, hS1P3, rS1P1, rS1P3 and parental cell) Ca^2+ Flux protocol as described below:
1. Material • a. FLIPR buffer: 1×HBSS; 10 mM HEPES • b. Cell growth media: • i. human and rat S1P1 and S1P3: F12-Ham's media; 10% FBS (qualified); 1× Pen/Strep/Glu; 300 ug/mL Hygromycin; 400 ug/mL Geneticin • ii. Parental cell: human and rat S1P1 and S1P3: F12-Ham's media; 10% FBS (qualified); 1× Pen/Strep/Glu; 300 ug/mL Hygromycin; • c. Cell seeding media; F12-Ham's media; 10% FBS (Charcoal/dextran stripped); 1× Pen/Strep/Glu; • d. Cell dissociation buffer: Versene from Invitrogen • e. Agonist (S1P) dissolving buffer: 0.4% (w/v) fatty-acid free BSA (Sigma #A8806) in FLIPR buffer • f. FLIPR dye: BD PBX Calcium assay kit; Cat#641077 is composed of Calcium indicator (Cat#850000) and 100×PBX signal enhancer (cat#850001). The 100×PBX signal enhancer is diluted into FLIPR buffer 1:100 and the calcium indicator is then added at 1:1000 ratio. • g. Cell plates (96-well): Greiner Cat#655090 • h. Compound plates (96-well): Costar #3365 • i. S1P stock solution preparation: S1P is purchased from CalBioChem (Catalog #970471; 1 mg vial; custom prep using methanol, & nitrogen gas drying inside glass vial; Storage @ −20° C.). Dissolve 1 vial of S1P into 26.4 ml of agonist dissolving buffer in a 50 ml centrifuge tube; Remove label from bottle of S1P, open and drop entire bottle into tube. Sonicate at 37° for ½ hour. Clear solution of 100 μM will result. This stock solution is aliquoted and stored at −80 C
2. Cell line maintenance • a. V5 tags were added at the N-terminus of hS1P1, hS1P3, rS1P1 and rS1P3. All four genes were transfected into CHO K1 cells which stably express Gqi5. • b. hS1P1 and hS1P3 were established as stable clones and rS1P1 and rS1P3 were sorted by anti V5 tag and established as stable pools after sorting. • c. Parental cell line CHO/K1 Gqi5 is used as the control. • d. All the cells are maintained in cell growth media and splitted twice a week using Versene. • e. All the cell lines are used under passage 30.
3. Assay protocol • a. Cell seeding: Cells are lifted from the flask by Versene and seeded in cell plates at 50K/well in cell seeding media. Cells are grown overnight at 37 degree. • b. Cell loading: Cell seeding media is discarded. Cells are loaded with 50 ul of FLIPR dye at RT for 90 min. Signal is stable for up to 5 h after dye loading. • c. Agonist (S1P) preparation: Frozen stock of S1P is thawed out and sonicated at 37 c for 30 minutes every time before use. The stock is then diluted into FLIPR buffer at proper concentration. • d. Compound preparation: Compounds are dissolved in DMSO. A 3×, 10 point dilution of the compounds are carried out in DMSO. Then the compounds are diluted into assay buffer 133× so that the DMSO concentration is 0.75%. • e. Activity measurement: The fluorescence signal change of the cells upon compound addition is monitored in FLIPRtetra. 25 ul of compound is transferred into the cell plates (50 ul of FLIPR dye; DMSO concentration: 0.25%). Signal is recorded for 90 sec after compound addition. Then 50 ul of 500 nM S1P is added in the cell plate, and signal is recorded for 90 seconds upon addition.
4. Data analysis • a. Peak value is calculated for each compound/S1P addition • b. The peak value of S1P at 200 nM is used as high control (100%), and the peak value of buffer only is used as low control (0%). • c. Data is normalized against high and low controls using the following equation: POC—S=100*(RAW−LO)/(HI−LO) • d. Peak value is plotted against the concentration of compound. • e. Curve is fitted using the 4 parameter fit: Y=(A+(B/(1+((x/C)^D)))) • where: • Y is POC_S (or POC) • X is compound concentration • A is the minimum (EC50min or IC50min) • B is the maximum (EC50max or IC50max) • C is the inflection point (EC50IP or IC50IP) • D is the hill slope (EC50 slope or IC50 slope).
`O=C(O)C1CCN(Cc2ccc(-c3cc4cc(C5CCCCC5)ccc4o3)cc2)CC1` [Compound 7, 1-(4-(5-cyclohexylbenzofuran-2-yl)benzyl)piperidine-4-carboxylic acid] gave a pEC50 below 4.60.

On to `CCCCc1ccc2oc(-c3ccc(CN4CCC(C(=O)O)CC4)cc3)cc2c1` [Compound 8, 1-((4-(5-Butylbenzofuran-2-yl)phenyl)methyl)piperidine-4-carboxylic acid], for which the pEC50 was below 4.60.

With `O=C(O)C1CCN(Cc2ccc(-c3cc4cc(Cc5ccccc5)ccc4o3)cc2)CC1` [Compound 9, 1-((4-(5-Benzylbenzofuran-2-yl)phenyl)methyl)piperidine-4-carboxylic acid], the pEC50 is at most 4.60.

`O=C(O)C1CN(Cc2ccc(-c3cc4cc(CCc5ccccc5)ccc4o3)cc2)C1` [Compound 11, 1-((4-(5-phenethylbenzofuran-2-yl)phenyl)methyl)azetidine-3-carboxylic acid]: the pEC50 is at most 4.60.

Compound `CC(C)Cc1ccc2oc(-c3ccc(CN4CCC(C(=O)O)CC4)cc3)cc2c1` [Compound 13, 1-(4-(5-isobutylbenzofuran-2-yl)benzyl)piperidine-4-carboxylic acid] gave a pEC50 below 4.60.

As for `CCCCOc1ccc2cc(-c3ccc(CN4CC(C(=O)O)C4)cc3)oc2c1` [Compound 21, 1-((4-(6-Butoxybenzofuran-2-yl)phenyl)methyl)azetidine-3-carboxylic acid], the pEC50 is 6.70.

Take `CCCCOc1ccc2oc(-c3ncc(CN4CC(C(=O)O)C4)s3)cc2c1` [Compound 22, 1-((2-(5-butoxybenzofuran-2-yl)thiazol-5-yl)methyl)azetidine-3-carboxylic acid]: the pEC50 was 5.96.

In the case of `CCCCOc1ccc2oc(-c3ccc(CN4CC(C(=O)O)C4)cc3F)cc2c1` [Compound 23, 1-((4-(5-Butoxybenzofuran-2-yl)3-fluorophenyl)methyl)azetidine-3-carboxylic acid], the pEC50 is 6.28.

In turn, `O=C(O)C1CN(Cc2ccc(-c3cc4cc(-c5cccs5)ccc4o3)cc2)C1` [Compound 28, 1-((4-(5-(thiophen-2-yl)benzofuran-2-yl)phenyl)methyl)azetidine-3-carboxylic acid] had a pEC50 of at most 4.60.

Compound `CC(C)(CC(=O)O)NCc1ccc(-c2cc3cc(Cc4ccccc4)ccc3o2)c(F)c1` [Compound 46, 3-((4-(5-Benzylbenzofuran-2-yl)-3-fluorophenyl)methylamino)-3-methylbutanoic acid] gave a pEC50 below 4.60.
